Structures are written as SMILES. Like-named read-outs stand apart in the source and are kept apart here.

For 32 compounds, EC50 results are on record in patent publication US9820972B2, “Antiviral compounds highly effective as HCV-NS5A inhibitor” (priority 2013, dated 2017).

This test concerns GT-1a of NS5A Replicon. In words: HCV double reporter gene (Renilla luciferase) replicon assay, GT-1a. The class given is cell-based, Hepatitis C virus (HCV). The settings on record: Hepatitis C virus. On the procedure:
Antiviral Assay for Inhibition Activity (EC50):
The study is completed by a new constructed double reporter genes replicon assay system, the capacity of viral replicon in infected cell is determined by detecting the reporter gene Renilla luciferase. The relationship of reporter genes, HCV RNA replicon and viral proteins is well linear. 8 gradient concentrations for 2-fold dilution, 3 wells, 3 times repetition and 1 or 2 control drugs are set to finally determine EC50 of compound.
THF was distilled from sodium metal and benzophenone. DCM, pentane and hexane were distilled form calcium hydride. Special raw material and intermediate in the invention were ordered by contract synthesis from Zannan SciTech Co., Let in China, others reagents were purchased from Shanghai reagent company, Aldrich, Acros etc. As intermediates or products during the synthesis is not required for the reaction and other tests the next step, the synthesis is repeated until a sufficient number of times. The invention of the prepared compounds of […] (HCV NS5A) inhibitory activity test was performed by CRO service units such as WuXi AppTec etc.
In general terms: Reporter assays use an easily measured gene product as a stand-in for the process of interest.

The mark [1] stands for this setting: GT1A, read-out: EC50 For GT-1a of NS5A Replicon.
Where [2] appears, read: GT1A, GT-1a replicon, class symbols, read-out: EC50 For GT-1a of NS5A Replicon.

For `CC(C)[C@H](NC(=O)OC(C)(C)C)C(=O)N1C[C@H](OC(=O)N2Cc3ccc4c(c3C2)OCO4)CC1c1ncc(-c2ccc(-c3ccc(-c4c[nH]c([C@@H]5C[C@@H](OC(=O)N6Cc7ccc8c(c7C6)OCO8)CN5C(=O)[C@@H](NC(=O)OC(C)(C)C)C(C)C)n4)cc3)cc2)[nH]1` (stereo partly drawn) [Compound 6f], under setting [1], the EC50 (commonly the concentration at which the effect is half-maximal) is > 50000 pM.

`COC(=O)N[C@H](C(=O)N1CN(C(=O)N2Cc3cc4c(cc3C2)OCO4)CC1c1nc(-c2cc3sc(-c4ccc(-c5c[nH]c([C@@H]6CCCN6C(=O)[C@@H](NC(=O)OC)C(C)C)n5)cc4)cc3s2)c[nH]1)C(C)C` (stereo partly drawn) [Compound 6fa]: the EC50 under setting [2] lay in the range of 1 to 999 pM. On the same count and under the same terms, in the case of `COC(=O)NC(C(=O)N1CCC[C@H]1c1nc(-c2cc3sc(-c4ccc(-c5c[nH]c(C6CN(C(=O)N7Cc8cc9c(cc8C7)OCO9)CN6C(=O)[C@@H](NC(=O)OC)C(C)C)n5)cc4)cc3s2)c[nH]1)c1ccccc1` (stereo partly drawn) [Compound 6fb] it was 1 to 999 pM; in that of `COC(=O)N[C@@H](C(=O)N1CC=CC1c1nc(-c2ccc(-c3cc4sc(-c5c[nH]c(C6C=CCN6C(=O)[C@H](NC(=O)OC)c6ccccc6)n5)cc4s3)cc2)c[nH]1)c1ccccc1` (stereo partly drawn) [Compound 6fe], 1 to 999 pM; in that of `COC(=O)N[C@@H](C(=O)N1CC=C[C@H]1c1ncc(-c2ccc(-c3cc4sc(-c5cnc([C@@H]6CCCN6C(=O)[C@H](NC(=O)OC)c6ccccc6)[nH]5)cc4s3)cc2)[nH]1)c1ccccc1` [Compound 6fh], 1 to 999 pM. Same read-out and setting: in the case of `COC(=O)N[C@H](C(=O)N1CCC[C@H]1c1ncc(-c2cc3sc(-c4ccc(-c5cnc([C@@H]6C=CCN6C(=O)[C@H](NC(=O)OC)c6ccccc6)[nH]5)cc4)cc3s2)[nH]1)C(C)C` [Compound 6fj] it was 1 to 999 pM.

For `COC(=O)N[C@@H](C(=O)N1CC=C[C@H]1c1ncc(-c2cc3sc(-c4ccc(-c5cnc([C@@H]6CCCN6C(=O)[C@H](NC(=O)OC)c6ccccc6)[nH]5)cc4)cc3s2)[nH]1)c1ccccc1` [Compound 6fk], the EC50 under setting [2] is 1 to 999 pM. `COC(=O)N[C@H](C(=O)N1CC=C[C@H]1c1ncc(-c2cc3sc(-c4ccc(-c5cnc([C@@H]6CCCN6C(=O)[C@@H](NC(=O)OC)C(C)C)[nH]5)cc4)cc3s2)[nH]1)C(C)C` [Compound 6fn]: the EC50 under setting [2] was 1 to 999 pM. In the case of `COC(=O)N[C@H](C(=O)N1CC=CC1c1ncc(-c2ccc(-c3csc4c(-c5c[nH]c([C@@H]6CCCN6C(=O)[C@@H](NC(=O)OC)C(C)C)n5)csc34)cc2)[nH]1)C(C)C` (stereo partly drawn) [Compound 6fq], the EC50 under setting [2] was in the range of 1 to 999 pM. Turning to `COC(=O)N[C@H](C(=O)N1CCC[C@H]1c1nc(-c2csc3c(-c4ccc(-c5cnc(C6C=CCN6C(=O)[C@H](NC(=O)OC)c6ccccc6)[nH]5)cc4)csc23)c[nH]1)C(C)C` (stereo partly drawn) [Compound 6fr], the EC50 under setting [2] was 1 to 999 pM.

For `COC(=O)N[C@@H](C(=O)N1CC=CC1c1ncc(-c2ccc(-c3csc4c(-c5c[nH]c([C@@H]6CCCN6C(=O)[C@H](NC(=O)OC)c6ccccc6)n5)csc34)cc2)[nH]1)c1ccccc1` (stereo partly drawn) [Compound 6fs], the EC50 under setting [2] is 1 to 999 pM.

For the compound `COC(=O)N[C@H](C(=O)N1CC=CC1c1ncc(-c2ccc(-c3csc4c(-c5c[nH]c([C@@H]6CCCN6C(=O)[C@H](NC(=O)OC)c6ccccc6)n5)csc34)cc2)[nH]1)C(C)C` (stereo partly drawn) [Compound 6ft], the EC50 under setting [2] is 1 to 999 pM. On the same count and under the same terms, in the case of `COC(=O)NC(C(=O)N1CC=C[C@H]1c1ncc(-c2ccc(-c3cc4sc(-c5cnc([C@@H]6CCCN6C(=O)[C@H](NC(=O)OC)c6ccccc6)[nH]5)cc4o3)cc2)[nH]1)c1ccccc1` (stereo partly drawn) [Compound 6fw] it was 1 to 999 pM; in that of `COC(=O)N[C@@H](C(=O)N1CC=C[C@H]1c1ncc(-c2ccc(-c3cc4sc(-c5cnc([C@@H]6CCCN6C(=O)[C@H](NC(=O)OC)c6ccccc6)[nH]5)cc4[nH]3)cc2)[nH]1)c1ccccc1` [Compound 6fx], 1 to 999 pM. `COC(=O)N[C@H](C(=O)N1CC=C[C@H]1c1nc(-c2csc3c(-c4ccc(-c5c[nH]c(C6CCCN6C(=O)[C@H](NC(=O)OC)c6ccccc6)n5)cc4)csc23)c[nH]1)C(C)C` (stereo partly drawn) [Compound 6fy]: the EC50 under setting [2] was in the range of 1 to 999 pM. With `CC(C)[C@H](NC(=O)OC1CCCC1)C(=O)N1C[C@H](OC(=O)N2Cc3ccc4c(c3C2)OCO4)C[C@H]1c1nc(-c2ccc(-c3ccc(-c4cnc([C@@H]5C[C@@H](OC(=O)N6Cc7ccc8c(c7C6)OCO8)CN5C(=O)[C@@H](NC(=O)OC5CCCC5)C(C)C)[nH]4)cc3)cc2)c[nH]1` [Compound 6g], the EC50 under setting [1] was > 50000 pM.

Turning to `CC(C)[C@H](NC(=O)OC1CCCC1)C(=O)N1CCC[C@H]1c1nc(-c2ccc(-c3ccc(-c4cnc([C@@H]5C[C@@H](OC(=O)N6Cc7ccc8c(c7C6)OCO8)CN5C(=O)[C@@H](NC(=O)OC5CCCC5)C(C)C)[nH]4)cc3)cc2)c[nH]1` [Compound 6h], the EC50 under setting [2] is > 50000 pM. The same measure, in the same setting: the result for `COC(=O)N[C@H](C(=O)N1C[C@H](OC(=O)N2Cc3cc4c(cc3C2)OCO4)CC1c1ncc(-c2ccc(-c3ccc(-c4c[nH]c([C@@H]5CCCN5C(=O)[C@@H](NC(=O)OC)C(C)C)n4)cc3)cc2)[nH]1)C(C)C` (stereo partly drawn) [Compound 6i] reads 1 to 999 pM. Still for that read-out and setting: in the case of `CC(C)[C@H](NC(=O)OC(C)(C)C)C(=O)N1CCC[C@H]1c1nc(-c2ccc(-c3ccc(-c4cnc([C@@H]5C[C@@H](OC(=O)N6Cc7cc8c(cc7C6)OCO8)CN5C(=O)[C@@H](NC(=O)OC(C)(C)C)C(C)C)[nH]4)cc3)cc2)c[nH]1` [Compound 6j] it was > 50000 pM; in that of `CC(C)(C)OC(=O)N[C@H](C(=O)N1CCC[C@H]1c1nc(-c2ccc(-c3ccc(-c4cnc([C@@H]5C[C@@H](OC(=O)N6Cc7cc8c(cc7C6)OCO8)CN5C(=O)[C@@H](NC(=O)OC(C)(C)C)C(C)(C)C)[nH]4)cc3)cc2)c[nH]1)C(C)(C)C` [Compound 6k], > 50000 pM; in that of `COC(=O)N[C@H](C(=O)N1CCC[C@H]1c1nc(-c2ccc(-c3ccc(-c4cnc([C@@H]5C[C@@H](OC(=O)N6Cc7cc8c(cc7C6)OCO8)CN5C(=O)[C@@H](NC(=O)OC(C)(C)C)C(C)C)[nH]4)cc3)cc2)c[nH]1)C(C)C` [Compound 6m], 1000 to 49900 pM.

With `COC(=O)N[C@H](C(=O)N1C[C@H](OC(=O)N2Cc3cc4c(cc3C2)OCO4)C[C@H]1c1nc(-c2ccc(-c3ccc(-c4cnc([C@@H]5C[C@@H](OC(=O)N6Cc7cc8c(cc7C6)OCO8)CN5C(=O)[C@@H](NC(=O)OC)C(C)C)[nH]4)cc3)cc2)c[nH]1)C(C)C` [Compound 6n], the EC50 under setting [1] is > 50000 pM. For the compound `CC(C)[C@H](NC(=O)OC(C)(C)C)C(=O)N1C[C@H](OC(=O)N2Cc3cc4c(cc3C2)OCO4)C[C@H]1c1nc(-c2ccc(-c3ccc(-c4cnc([C@@H]5C[C@@H](OC(=O)N6Cc7cc8c(cc7C6)OCO8)CN5C(=O)[C@@H](NC(=O)OC(C)(C)C)C(C)C)[nH]4)cc3)cc2)c[nH]1` [Compound 6p], the EC50 under setting [1] is > 50000 pM.

For `CC(C)[C@H](NC(=O)OC1CCCC1)C(=O)N1C[C@H](OC(=O)N2Cc3cc4c(cc3C2)OCO4)C[C@H]1c1nc(-c2ccc(-c3ccc(-c4cnc([C@@H]5C[C@@H](OC(=O)N6Cc7cc8c(cc7C6)OCO8)CN5C(=O)[C@@H](NC(=O)OC5CCCC5)C(C)C)[nH]4)cc3)cc2)c[nH]1` [Compound 6q], under setting [1], the EC50 is > 50000 pM. As to `CC(C)[C@H](NC(=O)OC1CCCC1)C(=O)N1CCC[C@H]1c1nc(-c2ccc(-c3ccc(-c4cnc([C@@H]5C[C@@H](OC(=O)N6Cc7cc8c(cc7C6)OCO8)CN5C(=O)[C@@H](NC(=O)OC5CCCC5)C(C)C)[nH]4)cc3)cc2)c[nH]1` [Compound 6r], under setting [2], the EC50 is > 50000 pM. Take `COC(=O)N[C@H](C(=O)N1CCC[C@H]1c1nc(-c2ccc(-c3ccc(-c4cnc([C@@H]5C[C@@H](OC(=O)N6Cc7cccc(F)c7C6)CN5C(=O)[C@@H](NC(=O)OC)C(C)C)[nH]4)cc3)cc2)c[nH]1)C(C)C` [Compound 6s]: the EC50 under setting [2] is 1 to 999 pM. For the compound `CC(C)[C@H](NC(=O)OC(C)(C)C)C(=O)N1C[C@H](OC(=O)N2Cc3cccc(F)c3C2)CC1c1ncc(-c2ccc(-c3ccc(-c4c[nH]c([C@@H]5CCCN5C(=O)[C@@H](NC(=O)OC(C)(C)C)C(C)C)n4)cc3)cc2)[nH]1` (stereo partly drawn) [Compound 6t], under setting [2], the 50% effective concentration (EC50) was > 50000 pM. For the compound `COC(=O)N[C@H](C(=O)N1CCC[C@H]1c1nc(-c2ccc(-c3ccc(-c4cnc([C@@H]5C[C@@H](OC(=O)N6Cc7cccc(F)c7C6)CN5C(=O)[C@@H](NC(=O)OC(C)(C)C)C(C)C)[nH]4)cc3)cc2)c[nH]1)C(C)C` [Compound 6u], the EC50 under setting [2] was 1000 to 49900 pM.

Turning to `CC(C)[C@H](NC(=O)OC1CCCC1)C(=O)N1CCC[C@H]1c1nc(-c2ccc(-c3ccc(-c4cnc([C@@H]5C[C@@H](OC(=O)N6Cc7cccc(F)c7C6)CN5C(=O)[C@@H](NC(=O)OC5CCCC5)C(C)C)[nH]4)cc3)cc2)c[nH]1` [Compound 6v], under setting [2], the EC50 is > 50000 pM. Regarding `COC(=O)N[C@H](C(=O)N1CCCC1c1nc(-c2ccc(-c3ccc(-c4c[nH]c([C@@H]5CCCN5C(=O)C5(NC(=O)OC)CC5)n4)cc3)cc2)c[nH]1)C(C)C` (stereo partly drawn) [Compound 6y], under setting [2], the EC50 was 1 to 999 pM. Take `COC(=O)N[C@H](C(=O)N1CCCC1c1nc(-c2ccc(-c3ccc(-c4c[nH]c([C@@H]5CCCN5C(=O)C5(NC(=O)OC)CCCC5)n4)cc3)cc2)c[nH]1)C(C)C` (stereo partly drawn) [Compound 6z]: the EC50 under setting [2] lay in the range of 1 to 999 pM.

Turning to `COC(=O)N[C@H](C(=O)N1CC2(CC2)C[C@H]1c1nc(-c2ccc3c(c2)C(F)(F)c2cc(-c4ccc5[nH]c([C@@H]6[C@H]7CC[C@H](C7)N6C(=O)[C@@H](NC(=O)OC)C(C)C)nc5c4)ccc2-3)c[nH]1)C(C)C` [Ref-2, reference compound], the EC50 is, setting by setting: under setting [1], 1 to 999 pM; (genotype 1a / genotype 6a, read-out: EC50 for Replicon (pM) of GT-1a to GT-6a: 1a) 88 pM.
